Reference: patent publication US9745360B2 (Sanofi, priority 2012, dated 2017)
pEC50: −log10 of the molar value. *1 amine or outer side, *2 acyl side, *3 side chain or, on linkers, in order; H or OH if unused. Where a SMILES comes first, the peptide text is derived from it. Side-chain parts run from the residue outwards. [ ]: non-standard residue; d: D form. The star is where a group is joined. γGlu = O=C(O)[C@H](CCC(=O)[*:2])N[*:1]; Palmitoyl = CCCCCCCCCCCCCCCC(=O)*; αMeK = C[C@](N)(CCCCN)C(=O)O; Aib = CC(C)(N)C(=O)O

Tests used:
[1] = molecular target: T1, human GIP receptor (hGIP R) (Homo sapiens, UniProt P48546); test: cAMP response (HTRF) of HEK-293 cells stably expressing human GIP receptor; format: cell-based; settings: Table 7; cAMP formation
T1 construct: expressed in transfected cells
T1 sequence (P48546 22-466): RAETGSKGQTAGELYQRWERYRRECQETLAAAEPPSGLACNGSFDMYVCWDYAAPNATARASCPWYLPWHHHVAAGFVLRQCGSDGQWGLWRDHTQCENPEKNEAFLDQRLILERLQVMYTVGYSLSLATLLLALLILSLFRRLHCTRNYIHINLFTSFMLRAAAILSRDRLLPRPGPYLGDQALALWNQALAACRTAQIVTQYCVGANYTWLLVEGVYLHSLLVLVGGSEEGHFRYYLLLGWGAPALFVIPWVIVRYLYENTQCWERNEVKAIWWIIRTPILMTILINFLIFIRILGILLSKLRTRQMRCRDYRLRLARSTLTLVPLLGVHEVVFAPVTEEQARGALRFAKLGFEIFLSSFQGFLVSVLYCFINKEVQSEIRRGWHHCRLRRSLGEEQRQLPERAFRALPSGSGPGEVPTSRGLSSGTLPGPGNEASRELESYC
Description: cAMP content of cells was determined using a kit from Cisbio Corp. (cat. no. 62AM4PEC) based on HTRF (Homogenous Time Resolved Fluorescence). For preparation, cells were split into T175 culture flasks and grown overnight to near confluency in medium (DMEM/10% FBS). Medium was then removed and cells washed with PBS lacking calcium and magnesium, followed by proteinase treatment with accutase (Sigma-Aldrich cat. no. A6964). Detached cells were washed and resuspended in assay buffer (1×HBSS; 20 mM HEPES, 0.1% BSA, 2 mM IBMX) and cellular density determined. They were then diluted to 400000 cells/ml and 25 μl-aliquots dispensed into the wells of 96-well plates. For measurement, 25 μl of test compound in assay buffer was added to the wells, followed by incubation for 30 minutes at room temperature.

[2] = system: non-fasted female diabetic dbdb-mice; test: Glucose lowering in non-fasted female diabetic dbdb-mice; format: in vivo; settings: 3 μg/kg s.c., at 240 min, kept to 480 min, baseline 20-22 mmol/l
From the text: Female diabetic dbdb-mice of mean non-fasted glucose value of 20-22 mmol/l and a body weight of 42 g+/−0.6 g (SEM) were used. Mice were individually marked and were adapted to housing conditions for at least one week.
3-5 days prior to study start mice were assigned to groups and cages (4 mice per cage, 8 per group, control group 16) according to their non-fasted glucose values to ensure even distribution of lower and higher values between groups (stratification). On the study day, mice were weighed and dosed (t=0). Immediately prior to compound administration feed was removed while water remained available, and a first blood sample at a tail incision was drawn (baseline). Further blood samples were drawn at the tail incision at 30, 60, 90, 120, 240, 360, and 480 min.
Statistical analyses are performed with Everstat Version 6.0 based on SAS by 2-way-ANOVA on repeated measures, followed by Dunnett's post-hoc test against vehicle-control. Differences are considered statistically significant at the p<0.05 level.

SMILES: CCCCCCCCCCCCCCCC(=O)N[C@@H](CCC(=O)NCCCC[C@H](NC(=O)[C@H](CCC(N)=O)NC(=O)[C@@H](NC(=O)[C@H](CO)NC(=O)[C@H](CC(C)C)NC(=O)[C@H](CC(=O)O)NC(=O)[C@H](CO)NC(=O)[C@@H](NC(=O)[C@H](Cc1ccccc1)NC(=O)[C@@H](NC(=O)CNC(=O)[C@H](CCC(=O)O)NC(=O)C(C)(C)NC(=O)[C@@H](N)Cc1ccc(O)cc1)[C@@H](C)O)[C@@H](C)O)[C@@H](C)CC)C(=O)N[C@@H](CCC(=O)O)C(=O)N[C@@H](CCC(=O)O)C(=O)N[C@@H](CCCNC(=N)N)C(=O)N[C@@H](C)C(=O)N[C@@H](C)C(=O)N[C@@](C)(CCCCN)C(=O)N[C@@H](CCC(=O)O)C(=O)N[C@@H](Cc1ccccc1)C(=O)N[C@H](C(=O)N[C@@H](CCC(=O)O)C(=O)N[C@@H](Cc1c[nH]c2ccccc12)C(=O)N[C@@H](CC(C)C)C(=O)N[C@@H](CCCCN)C(=O)N[C@@H](CC(N)=O)C(=O)N[C@H](C(=O)NCC(=O)N1CCC[C@H]1C(=O)N[C@@H](CO)C(=O)N[C@@H](CO)C(=O)NCC(=O)N[C@@H](C)C(=O)N1CCC[C@H]1C(=O)N1CCC[C@H]1C(=O)N1CCC[C@H]1C(=O)N[C@@H](CO)C(N)=O)[C@@H](C)O)[C@@H](C)CC)C(=O)O [SEQ ID NO: 11, Y-Aib-E-G-T-F-T-S-D-L-S-I-Q-K(γE-x53)-E-E-R-A-A-(S)MeLys-E-F-I-E-W-L-K-N-T-G-P-S-S-G-A-P-P-P-S-NH2] (H-Y[Aib]EGTFTSDLSIQK([γGlu-Palmitoyl])EERAA[αMeK]EFIEWLKNTGPSSGAPPPS-NH2)
- pEC50 [1]: 11.15
- maximal effect, glucose reduction [2]: ~11 mmol/L
